This is an account of results in ChEMBL document CHEMBL2413076, “Synthesis and biological evaluation of ursolic acid-triazolyl derivatives as potential anti-cancer agents” (Eur J Med Chem, 2013).

Data set [1] can be described thus: Growth inhibition of human FR2 cells after 48 hrs by sulforhodamine-B assay. The class given is cell-based. The following applies: FR2, 48 h. Background: The SRB assay estimates cell density from bound dye.
The subject of data set [2] is THP-1. Briefly: Growth inhibition of human THP1 cells after 48 hrs by sulforhodamine-B assay. The class given is functional, cell-based. The following applies: THP-1, 48 h.
The test system of data set [3] is MCF7. The experiment in a line: Growth inhibition of human MCF7 cells after 48 hrs by sulforhodamine-B assay. The class given is functional, cell-based. The conditions noted are these: MCF7, 48 h.
For data set [4], the system named is HCT-116. The experiment in a line: Growth inhibition of human HCT116 cells after 48 hrs by sulforhodamine-B assay. The class given is functional, cell-based. The following applies: HCT-116, 48 h.
For data set [5], the system named is A549. The experiment in a line: Growth inhibition of human A549 cells after 48 hrs by sulforhodamine-B assay. The format is functional, cell-based. The following applies: A549, 48 h.
A short description of data set [6]: Growth inhibition of human FR2 cells assessed as dead cells at 10 uM after 48 hrs by sulforhodamine-B assay relative to control. The class given is cell-based. The conditions noted are these: read-out: GI.
In data set [7] the test system is THP-1. The experiment in a line: Growth inhibition of human THP1 cells assessed as dead cells at 10 uM after 48 hrs by sulforhodamine-B assay relative to control. The format is functional. The conditions noted are these: THP-1, 48 h, read-out: GI.
The subject of data set [8] is HCT-116. Briefly: Growth inhibition of human HCT116 cells assessed as dead cells at 10 uM after 48 hrs by sulforhodamine-B assay relative to control. The class given is functional. The conditions noted are these: HCT-116, 48 h, read-out: GI.
The subject of data set [9] is MCF7. Briefly: Growth inhibition of human MCF7 cells assessed as dead cells at 10 uM after 48 hrs by sulforhodamine-B assay relative to control. The format is functional. The following applies: MCF7, 48 h, read-out: GI.
The subject of data set [10] is A549. The experiment in a line: Growth inhibition of human A549 cells assessed as dead cells at 10 uM after 48 hrs by sulforhodamine-B assay relative to control. The format is functional. The conditions noted are these: A549, 48 h, read-out: GI.
Data set [11] in a line: Growth inhibition of human FR2 cells assessed as dead cells at 50 uM after 48 hrs by sulforhodamine-B assay relative to control. The format is cell-based. The conditions noted are these: read-out: GI.
The subject of data set [12] is A549. Briefly: Growth inhibition of human A549 cells assessed as dead cells at 50 uM after 48 hrs by sulforhodamine-B assay relative to control. The class given is functional. The following applies: A549, 48 h, read-out: GI.
Data set [13] has as its system MCF7. The experiment in a line: Growth inhibition of human MCF7 cells assessed as dead cells at 50 uM after 48 hrs by sulforhodamine-B assay relative to control. The class given is functional. The following applies: MCF7, 48 h, read-out: GI.
The test system of data set [14] is HCT-116. The experiment in a line: Growth inhibition of human HCT116 cells assessed as dead cells at 50 uM after 48 hrs by sulforhodamine-B assay relative to control. The class given is functional. The conditions noted are these: HCT-116, 48 h, read-out: GI.
Data set [15] has as its system THP-1. Briefly: Growth inhibition of human THP1 cells assessed as dead cells at 50 uM after 48 hrs by sulforhodamine-B assay relative to control. The conditions noted are these: THP-1, 48 h, read-out: GI. The class given is functional.

`C#CCOC(=O)[C@]12CC[C@@H](C)[C@H](C)[C@H]1C1=CC[C@@H]3[C@@]4(C)CCC(=O)C(C)(C)[C@@H]4CC[C@@]3(C)[C@]1(C)CC2`: the IC50 (commonly the concentration that gives 50% inhibition) in data set [1] was 24 µM; in the data set on THP-1 [2], 13 µM; in the data set on MCF7 [3], 56 µM; in the data set with HCT-116 [4] it was 2.3 µM; in the data set on A549 [5], 15 µM. The inhibition at 48 h, 10 µM in data set [6] is 33%. For the same compound, the inhibition of growth at 10 µM stood at 42% in the data set with THP-1 [7], 74% with HCT-116 [8], 22% with MCF7 [9] and 50% in the data set on A549 [10]. For the same compound, the inhibition at 48 h, 50 µM in data set [11] came to 86%. Besides, the inhibition of growth at 50 µM turned out to be 78% in the data set on A549 [12], 42% in the data set with MCF7 [13], 96% with HCT-116 [14] and 88% in the data set on THP-1 [15].

As for `COc1ccccc1-n1cc(COC(=O)[C@]23CC[C@@H](C)[C@H](C)[C@H]2C2=CC[C@@H]4[C@@]5(C)CCC(=O)C(C)(C)[C@@H]5CC[C@@]4(C)[C@]2(C)CC3)nn1`, the IC50 in data set [1] was over 50 µM; with THP-1 [2], under 0.1 µM; in the data set on MCF7 [3], under 0.1 µM; in the data set on HCT-116 [4], 0.3 µM; in the data set with A549 [5] it was under 0.1 µM. In addition, in data set [6], the inhibition at 48 h, 10 µM is 5%. In addition, the inhibition of growth at 10 µM in the data set with THP-1 [7] is 82%; in the data set on HCT-116 [8] it was 77%; with MCF7 [9], 87%; in the data set on A549 [10] it was 79%. Moreover, the inhibition at 48 h, 50 µM in [11] came out at 28%. The inhibition of growth at 50 µM with A549 [12] was determined as 94%; in the data set with MCF7 [13], 91%; in the data set with HCT-116 [14], 94%; in the data set on THP-1 [15], 93%.

Regarding `C[C@H]1[C@H](C)CC[C@]2(C(=O)OCc3cn(-c4ccccc4I)nn3)CC[C@]3(C)C(=CC[C@@H]4[C@@]5(C)CCC(=O)C(C)(C)[C@@H]5CC[C@]43C)[C@H]12`, the IC50 amounted to 35 µM in data set [1]; 9.4 µM in the data set on THP-1 [2]; 13 µM in the data set on MCF7 [3]; 15 µM in the data set with HCT-116 [4]; 19 µM in the data set on A549 [5]. For the same compound, in data set [6], the inhibition at 48 h, 10 µM worked out at 36%. Further, the inhibition of growth at 10 µM came out at 56% in the data set with THP-1 [7], 44% in the data set with HCT-116 [8], 54% in the data set with MCF7 [9] and 43% with A549 [10]. In data set [11], the inhibition at 48 h, 50 µM was determined as 56%. The inhibition of growth at 50 µM stood at 67% in the data set with A549 [12], 76% in the data set with MCF7 [13], 78% in the data set on HCT-116 [14] and 79% in the data set with THP-1 [15].

`C[C@H]1[C@H](C)CC[C@]2(C(=O)OCc3cn(-c4ccc(CC#N)cc4)nn3)CC[C@]3(C)C(=CC[C@@H]4[C@@]5(C)CCC(=O)C(C)(C)[C@@H]5CC[C@]43C)[C@H]12`: the IC50 is 46 µM in [1]; 37 µM in the data set with THP-1 [2]; 79 µM in the data set with MCF7 [3]; 19 µM with HCT-116 [4]; over 100 µM in the data set with A549 [5]. The inhibition at 48 h, 10 µM in [6] was 14%. In addition, the inhibition of growth at 10 µM came out at 32% in the data set on THP-1 [7], 44% in the data set with HCT-116 [8], 17% with MCF7 [9] and 13% with A549 [10]. Also, the inhibition at 48 h, 50 µM in data set [11] came out at 46%. Besides, the inhibition of growth at 50 µM came out at 26% in the data set on A549 [12], 34% in the data set with MCF7 [13], 67% in the data set with HCT-116 [14] and 55% in the data set with THP-1 [15].
